Reference: patent publication US6004982A, “4-piperidinyl) H-2-benzopyran derivatives useful as antipsychotic agents” (Hoechst Marion Roussel, Inc., priority 1998, dated 1999)
Structures can show the parent of a compound that is named as a salt.

biological target: T1, human dopamine D2L receptor (Human D2Long Receptors) (Homo sapiens, UniProt P14416); assay: Human dopamine D2L receptor binding assay ([3H]N-methyl spiroperidol displacement); conditions: not given
T1 construct: expressed in transfected cells
T1 sequence (P14416 whole entry): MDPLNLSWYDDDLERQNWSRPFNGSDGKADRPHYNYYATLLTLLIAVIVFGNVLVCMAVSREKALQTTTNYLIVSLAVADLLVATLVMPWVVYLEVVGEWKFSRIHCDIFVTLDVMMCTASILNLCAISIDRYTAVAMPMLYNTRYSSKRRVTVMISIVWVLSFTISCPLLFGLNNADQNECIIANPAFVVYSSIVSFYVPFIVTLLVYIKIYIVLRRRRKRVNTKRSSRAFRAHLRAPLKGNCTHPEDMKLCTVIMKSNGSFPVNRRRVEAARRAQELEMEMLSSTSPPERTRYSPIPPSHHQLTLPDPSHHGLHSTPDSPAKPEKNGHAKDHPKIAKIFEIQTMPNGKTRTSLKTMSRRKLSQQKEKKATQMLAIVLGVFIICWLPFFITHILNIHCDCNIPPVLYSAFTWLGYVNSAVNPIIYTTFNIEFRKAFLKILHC
Experimental: A single high expressing clonal cell line was isolated and membranes from this cell line were used for receptor binding assays. […] The incubation buffer contained: 50 mM Tris, 120 mM NaCl; 5 mM Kcl; 2 mM CaCl2; 1 mM MgCl2; pH 7.7). […] Incubations were performed at 37° C. in a shaking water bath for 30 min, terminated by rapid filtration through Whatman GF/B filters (presoaked in 0.3% polyethyleneimine), and counted in a liquid scintillation counter. Non-specific binding was defined as that remaining in the presence of 3 μM eticlopride. […] The percent inhibition at each drug concentration was the average of duplicate determinations. […] Cheng-Prisoff determination (Ki's) are performed using Prism software.

| Compound | Ki [nM] |
| --- | --- |
| COc1cc(C(C)=O)ccc1OCCCN1CCC([C@@H]2Cc3c(ccc4c3OC3(CCCCC3)O4)[C@H](CNC=O)O2)CC1 (relative stereo) [Example 30, cis-N-[3-[1-[3-(4-acetyl-2-methoxyphenoxy)propyl]-4-piperidinyl]-5,6-(cyclohexylidenedioxy)-3,4-dihydro-1H-2-benzopyran-1-ylmethyl]formamide oxalate Trihydrate] | 857 |
| O=CNC[C@@H]1O[C@H](C2CCN(CCc3cccs3)CC2)Cc2c1ccc1c2OC2(CCCCC2)O1 (relative stereo) [Example 24, cis-N-[5,6-(cyclohexylidinedioxy)-3,4-dihydro-3-[1(2-(thiophen-2-yl)ethyl)-4-piperidinyl]-1H-2-benzofuran-1-ylmethyl]formamide] | 506 |

same assay, conditions: Table 2; [3H]N-methyl spiroperidol 0.4 nM; CHO membranes; 37° C., 30 min; pH 7.7; read-out: Ki

| Compound | Ki [nM] |
| --- | --- |
| NC[C@@H]1O[C@H](C2CCN(CCc3ccc(Cl)cc3)CC2)Cc2c1ccc(O)c2O (relative stereo) [Example 14, cis-1-(Aminomethyl)-3-[1-[2-(4-chlorophenyl)ethyl]-3,4-dihydro-4-piperidinyl]-1H-2-benzopyran-5,6-diol dihydrochloride] | 505 |
| NC[C@@H]1O[C@H](C2CCN(CCc3ccccc3)CC2)Cc2c1ccc(O)c2O (relative stereo) [Example 4D, cis-1-(Aminomethyl)-3,4-dihydro-3-[1-(2-phenylethyl)-4-piperidinyl]-1H-2-benzopyran-5,6-diol Dihydrobromide Sesquihydrate] | 1090 |
| NC[C@@H]1O[C@H](C2CCN(CCOc3ccccc3)CC2)Cc2c1ccc(O)c2O (relative stereo) [Example 23, cis-1-(Aminomethyl)-3,4-dihydro-3-[1(2-phenoxyethyl)-4-piperidinyl]-1H-2-benzopyran-5,6-diol dihydrochloride 0.4 hydrate] | 500 |
| NC[C@@H]1O[C@H](C2CCN(CCCn3c(=O)[nH]c4ccccc43)CC2)Cc2c1ccc(O)c2O (relative stereo) [Example 34, cis-1-[3-[4-(1-Aminomethyl-3,4-dihydro-5,6-dihydroxy-1H-2-benzopyran-3-yl)-1-piperidinyl]propyl]-1,3-dihydrobenzimidazol-2-one Dihydrochloride 1.33 Hydrate] | 432 |
| CNC[C@@H]1O[C@H](C2CCN(CCc3ccc(Cl)cc3)CC2)Cc2c1ccc(O)c2O (relative stereo) [Example 15, cis-3-[1-[2-(4-Chlorophenyl)ethyl]-4-piperidinyl]-3,4-dihydro-1-(N-methylaminomethyl)-1H-2-benzopyran-5,6-diol dihydrochloride hemihydrate] | 413 |
| NC[C@@H]1O[C@H](C2CCN(CCCC(c3ccc(F)cc3)c3ccc(F)cc3)CC2)Cc2c1ccc1c2OC2(CCCCC2)O1 (relative stereo) [Example 39, cis-1-Aminomethyl-5,6-(cyclohexylidenedioxy)-3,4-dihydro-3-[1-[4,4-bis(4-fluorophenyl)butyl]-4-piperidinyl]-1H-2-benzopyran Dioxalate 2.4 Hydrate] | 153 |
| NC[C@@H]1O[C@H](C2CCNCC2)Cc2c1ccc(O)c2O (relative stereo) [Example 33, cis-1-(Aminomethyl)-3,4-dihydro-3-(4-piperidinyl)-1H-2-benzopyran-5,6-diolDihydrochloride 0.3 Hydrate] | 3900 |
| NC[C@@H]1O[C@H](C2CCN(CCCC(c3ccc(F)cc3)c3ccc(F)cc3)CC2)Cc2c1ccc(O)c2O (relative stereo) [Example 29, cis-1-(Aminomethyl)3-[1-[4,4-bis-(4-fluorophenyl)butyl]-4-piperidinyl]-1H-2-benzopyran-5,6-diol Dihydrochloride Dihydrate] | 91.8 |
| COc1cc(C(C)=O)ccc1OCCCN1CCC([C@@H]2Cc3c(ccc(O)c3O)[C@H](CN)O2)CC1 (relative stereo) [Example 31, cis-1-(3-[3-[4-[1-(Aminomethyl)-3,4-dihydro-5,6-dihydroxy-1H-2-benzopyran-3-yl]-1-piperidinyl]propoxy]-3-methoxyphenyl)ethanone Dihydrochloride Dihydrate] | 1100 |
| COc1ccc(CCN2CCC([C@@H]3Cc4c(ccc(O)c4O)[C@H](CN)O3)CC2)cc1 (relative stereo) [Example 11, cis-1-(Aminomethyl)-3,4-dihydro-3-[1-[2-(4-methoxyphenyl)ethyl]-4-piperidinyl]-1H-2-benzopyran-5,6-diol Dihydrochloride] | 1200 |

test system: apomorphine-induced climbing in CD-1 male mice; assay: Climbing mouse assay (CMA), antagonism of apomorphine-induced climbing; format: in vivo; conditions: ip, Table I, compounds of the invention, i.p. 30 min before apomorphine 1.5 mg/kg s.c.
Experimental: CLIMBING MOUSE ASSAY (CMA)
This test may be used as to identify compounds useful in treating psychosis. Costall, B. et al, Eur. J. Pharm. 50: 39-50 (1978); Protais, P., et al., Psychopharmacology 50:1-6 (1976). […] This effect of apomorphine is antagonized by the D2 receptor antagonist.
CD-1 male mice (20-30 grams) are assigned to groups of 8 and individually placed in wire mesh stick cages and allowed one hour for adaptation to new environment. Apomorphine is injected at 1.5 mg/kg subcutaneously which is a dose which causes climbing in all subjects for thirty minutes. Test compounds are administered intraperitoneally thirty minutes prior to the apomorphine administration at a dose of 20 mg/kg.
For evaluation of climbing, three readings are taken at ten, twenty and thirty minutes after apomorphine administration according to the following scale:
4 paws on bottom (no climbing) 0
2 paws on the wall (rearing) 1
4 paws on the wall (full climb) 2
The climbing scores are individually totaled (maximal score: 6 per mouse over three readings) and total score of the control (vehicle intraperitoneally (ip) and apomorphine subcutaneous) is set to 100%. ED50 values with 95% confidence limits calculated by a linear regression analysis of some of the compounds of the present invention as well as a standard antipsychotic agent (clozapine) are presented in Table 1.

| Compound | ED50 [mg/kg] |
| --- | --- |
| NC[C@@H]1O[C@H](C2CCN(CCc3ccccc3)CC2)Cc2c1ccc(O)c2O (relative stereo) [Example 4D, cis-1-(Aminomethyl)-3,4-dihydro-3-[1-(2-phenylethyl)-4-piperidinyl]-1H-2-benzopyran-5,6-diol Dihydrobromide Sesquihydrate] | 8.1 |
